Measured values published in US8741602B2, “Method for producing glucuronic acid conjugate using Saccharomyces cerevisiae” (Toyama Prefecture, priority 2010, dated 2014).
Where two headings read alike, the source gives them in different places.

Assays:
ratCYP1A1 and UGT1A6 = molecular target: T1, ratCYP1A1 and UGT1A6 (UniProt P00185+P19224); assay: Resting yeast cells co-expressing UDPGDH, UGT1A6 and rat CYP1A1; format: cell-based; settings: 1 mM 7-ethoxycoumarine, 8% glucose, 30° C., 72 hrs
T1 construct: expressed in transfected cells; host or cells: Saccharomyces cerevisiae AH22
T1 sequence (P00185 2-524): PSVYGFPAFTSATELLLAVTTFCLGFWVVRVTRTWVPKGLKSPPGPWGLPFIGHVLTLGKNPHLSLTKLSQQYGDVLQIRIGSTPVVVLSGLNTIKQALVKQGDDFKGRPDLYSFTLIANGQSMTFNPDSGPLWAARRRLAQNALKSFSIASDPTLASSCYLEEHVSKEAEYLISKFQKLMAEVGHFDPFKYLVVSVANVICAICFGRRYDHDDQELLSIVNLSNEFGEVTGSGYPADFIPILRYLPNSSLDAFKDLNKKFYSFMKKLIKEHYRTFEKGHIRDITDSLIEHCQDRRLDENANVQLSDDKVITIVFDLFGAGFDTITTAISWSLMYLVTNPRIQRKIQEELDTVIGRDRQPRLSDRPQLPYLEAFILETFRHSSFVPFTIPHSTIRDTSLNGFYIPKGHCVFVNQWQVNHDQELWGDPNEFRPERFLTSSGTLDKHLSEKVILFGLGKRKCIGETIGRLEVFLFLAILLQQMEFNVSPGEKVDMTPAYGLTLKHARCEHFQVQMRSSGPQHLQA
T1 sequence (P19224 27-532): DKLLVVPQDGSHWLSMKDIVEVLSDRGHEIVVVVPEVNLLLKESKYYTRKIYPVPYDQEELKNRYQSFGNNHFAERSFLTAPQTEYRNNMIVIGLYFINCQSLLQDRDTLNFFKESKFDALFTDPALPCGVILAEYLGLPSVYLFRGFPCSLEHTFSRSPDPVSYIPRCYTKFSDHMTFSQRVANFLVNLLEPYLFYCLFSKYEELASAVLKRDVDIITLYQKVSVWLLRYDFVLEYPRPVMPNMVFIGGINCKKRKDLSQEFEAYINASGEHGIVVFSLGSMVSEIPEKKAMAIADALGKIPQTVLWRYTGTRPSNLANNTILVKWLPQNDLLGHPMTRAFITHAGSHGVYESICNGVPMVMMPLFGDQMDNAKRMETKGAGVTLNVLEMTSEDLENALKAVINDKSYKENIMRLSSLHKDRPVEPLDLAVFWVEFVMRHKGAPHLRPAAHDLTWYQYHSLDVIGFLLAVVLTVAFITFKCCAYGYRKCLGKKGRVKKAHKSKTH
Description: In the precursor of most glucuronide, hydroxyl groups are introduced by P450-dependent monooxynenation. To analyze the structure and function of these xenobiotic metabolizing enzymes the expression system of several mammalian P450 and UGT isoforms was constructed in budding yeast cells, Saccharomyces cerevisiae AH22. This in vitro system is able to convert 7-ethoxycoumarine to its glucuronide via hydroxyl intermediate, 7-hydroxycoumarine (Ref 6). Yeast cells lack the ability of production of UDP-glucuronic acid (UDP-GlcUA) from UDP-glucose to synthesize the glucuronide in whole cells. To achieve the sequential production of hydroxyl intermediate and glucuronidation, co-expression yeast system containing UDPGDH, UGT, and P450 was constructed using combination of expression vectors (pAUR-At.UDPGDH/UGT1A6 and pGYR/ratCYP1A1, No. 5 in Table 2). […] Each phase was analyzed by UPLC system (FIG. 13).

CYP2D6 and UGT1A8 = molecular target: T2, CYP2D6 and UGT1A8 (Homo sapiens, UniProt P10635); assay: Resting yeast cells with UDPGDH, human UGT and human P450; format: cell-based; settings: human P450 2D6 and human UGT1A8; 1 mM 7-ethoxycoumarine
T2 construct: expressed in transfected cells; host or cells: Saccharomyces cerevisiae
Description: To achieve the sequential production of hydroxyl intermediate and glucuronidation, co-expression yeast system containing UDPGDH, UGT, and P450 was constructed using combination of expression vectors (pAUR-ratUDPGDH/UGT1A6 and pPYR/humanCYP).
Each phase was analyzed by UPLC system (FIG. 15 and Table 7).
FIG. 15 indicated reverse phase HPLC elution pattern of metabolites from 7-ethoxycoumarine using resting yeast cells containing UDPGDH, human UGT1A8, and human P450 2D6. […] Each hydroxyl intermediates further were metabolized to corresponding glucuronides by human UGT1A8.

UGT1A1 = molecular target: T3, UGT1A1 (Homo sapiens, UniProt P22309); settings: fission yeast, Dragan et al.; cited from earlier work
T3 construct: host or cells: Schizosaccharomyces pombe
T3 sequence (P22309 26-533): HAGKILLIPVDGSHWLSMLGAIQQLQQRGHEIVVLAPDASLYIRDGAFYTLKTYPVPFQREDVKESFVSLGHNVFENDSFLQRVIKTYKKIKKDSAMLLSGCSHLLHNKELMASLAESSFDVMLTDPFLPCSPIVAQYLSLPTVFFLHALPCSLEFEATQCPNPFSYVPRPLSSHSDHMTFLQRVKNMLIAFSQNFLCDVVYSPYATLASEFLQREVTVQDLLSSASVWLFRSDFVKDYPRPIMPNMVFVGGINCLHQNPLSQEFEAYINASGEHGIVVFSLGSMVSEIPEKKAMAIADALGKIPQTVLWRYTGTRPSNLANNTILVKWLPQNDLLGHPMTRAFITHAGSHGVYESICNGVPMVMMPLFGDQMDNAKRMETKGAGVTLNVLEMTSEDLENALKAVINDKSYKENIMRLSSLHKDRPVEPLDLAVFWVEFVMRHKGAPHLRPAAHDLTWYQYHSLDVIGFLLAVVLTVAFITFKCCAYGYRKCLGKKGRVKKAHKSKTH

UGT1A6 [1] = molecular target: T4, UGT1A6 (Homo sapiens, UniProt P19224); set-up: host or cells: Schizosaccharomyces pombe; settings: fission yeast, Dragan et al.; cited from earlier work
T4 sequence (P19224 27-532): T1 sequence (P19224 27-532)

UGT1A6 [2] = molecular target: T4, UGT1A6; assay: Glucuronide production in resting S. cerevisiae AH22 cells co-expressing UDPGDH and UGT1A6; format: cell-based; set-up: expressed in transfected cells; host or cells: Saccharomyces cerevisiae AH22; settings: UGT1A6
Description: Each phase was analyzed by UPLC system.
Time course of conversion in the transformant with the highest activity of glucuronidation (AH22: pAUR/At.UDPGDH+pGYR/hUGT1A6) was examined (FIG. 6).
Glucose concentration dependence of conversion in the transformant with the highest activity of glucuronidation (AH22: pAUR/At.UDPGDH+pGYR/hUGT1A6) was examined (FIG. 7).

hUGT1A1 = molecular target: T5, hUGT1A1 (Homo sapiens, UniProt P22309); assay: Glucuronide production in resting S. cerevisiae AH22 cells co-expressing UDPGDH and UGT1A1; settings: UGT1A1
T5 sequence (P22309 28-533): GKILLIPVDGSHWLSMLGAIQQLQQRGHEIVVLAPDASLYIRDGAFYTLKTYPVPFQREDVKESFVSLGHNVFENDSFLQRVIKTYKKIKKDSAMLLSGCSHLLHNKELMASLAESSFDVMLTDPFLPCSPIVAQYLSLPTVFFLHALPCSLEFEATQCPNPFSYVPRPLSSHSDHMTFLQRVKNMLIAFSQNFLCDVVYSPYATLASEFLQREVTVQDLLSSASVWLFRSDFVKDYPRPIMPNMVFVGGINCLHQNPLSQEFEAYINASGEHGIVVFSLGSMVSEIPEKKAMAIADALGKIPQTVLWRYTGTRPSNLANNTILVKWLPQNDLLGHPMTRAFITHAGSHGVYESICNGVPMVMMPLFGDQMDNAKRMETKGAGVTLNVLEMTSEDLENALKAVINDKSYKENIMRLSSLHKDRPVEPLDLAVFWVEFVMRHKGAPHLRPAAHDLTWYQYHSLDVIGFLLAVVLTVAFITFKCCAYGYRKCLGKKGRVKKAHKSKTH
Description: To confirm the production of 7-hydroxycoumarine glucuronide in the resting yeast cells containing UDPGDH and UGT, transformants were cultivated in selection medium at 30° C., 48 hrs, and the resultant yeast cells were suspended with appropriate buffer solution containing 0.1-1 mM 7-hydroxycoumarine and 1-8% (w/v) glucose. After incubation at 30° C., 24 hrs, 2-fold volume of chloroform:methanol (3:1, v/v) was added to reaction medium containing yeast cells. Centrifugation of extracts was separated to upper water and lower organic phase. Lower organic phase were evaporated and redissolved in 200 μl acetonitrile. Each phase was analyzed by UPLC system. Condition of analysis are described below; column: Cosmosil 2.5C18-MS-II (2.0 mm×100 mm, nacalai tesque), flow rate 0.5 ml/min, detection 320 nm, temperature 45° C. Condition of gradient elution: water-acetonitrile with 0.5% (v/v) trifluoroacetic acid, 10% (v/v) acetonitrile (4 min), 10-70% acetonitrile (6 min), 70-10% acetonitrile (2 min), 10% acetonitrile (4 min).
To confirm the production of quercetin glucuronide in the resting yeast cells containing UDPGDH and UGT (pAUR/At.UDPGDH+pGYR/hUGT1A1), transformants were cultivated in selection medium at 30° C., 48 hrs, and the resultant yeast cells were suspended with 0.1 M potassium phosphate buffer (pH 7.4) containing 0.2 mM quercetin and 8% (w/v) glucose. After incubation at 30° C., 24 hrs, 2-fold volume of chloroform:methanol (3:1, v/v) was added to reaction medium containing yeast cells. Centrifugation of extracts was separated to upper water and lower organic phase. Lower organic phase were evaporated and redissolved in 200 μl acetonitrile. Quercetin glucuronides in yeast cells was isolated and detected by WAKOPAK™ Navi C30-5 (3 mm×150 mm, Wako Chemical)-column-HPLC system with followed condition; flow rate; 0.4 ml/min, detection; 370 nm, temperature 37° C. Condition of gradient elution: water-acetonitrile with 0.5% (v/v) phosphoric acid, 18% (v/v) acetonitrile (10 min), 18-55% acetonitrile (10 min), 55% acetonitrile (5 min).
To compare the production ability of glucuronide in budding (Saccharomyces cerevisiae) and fission yeast (Schizosaccharomyces pombe) containing UDPGDH and UGT, several transformants (No. 4 in Table 2 and transformant with N-terminal modified UGT1A1) were selected for the assay. These transformants were cultivated in selection medium at 30° C., 48 hrs, and the resultant yeast cells were suspended with appropriate buffer solution containing 0.5 mM 4-methylumberrferone and 8% (w/v) glucose. After incubation at 30° C., 24 hrs, 2-fold volume of chloroform:methanol (3:1, v/v) was added to reaction medium containing yeast cells. Centrifugation of extracts was separated to upper water and lower organic phase. Lower organic phase were evaporated and redissolved in 200 μl acetonitrile. Each phase was analyzed by UPLC system.
Condition of analysis are described below; column: COSMOSIL™ 2.5C18-MS-II (2.0 mm×100 mm, Nacalai Tesque), flow rate 0.5 ml/min, detection 320 nm, temperature 45° C. Condition of gradient elution: water-acetonitrile with 0.1% (v/v) trifluoroacetic acid, 10% acetonitrile (4 min), 10-70% acetonitrile (6 min), 70-10% acetonitrile (2 min), 10% acetonitrile (3 min).

[3] = budding yeast, 0.5 mM 4-methylumberrferone, 8% (w/v) glucose, 30° C., 24 hrs

T2 sequence (P10635 whole entry): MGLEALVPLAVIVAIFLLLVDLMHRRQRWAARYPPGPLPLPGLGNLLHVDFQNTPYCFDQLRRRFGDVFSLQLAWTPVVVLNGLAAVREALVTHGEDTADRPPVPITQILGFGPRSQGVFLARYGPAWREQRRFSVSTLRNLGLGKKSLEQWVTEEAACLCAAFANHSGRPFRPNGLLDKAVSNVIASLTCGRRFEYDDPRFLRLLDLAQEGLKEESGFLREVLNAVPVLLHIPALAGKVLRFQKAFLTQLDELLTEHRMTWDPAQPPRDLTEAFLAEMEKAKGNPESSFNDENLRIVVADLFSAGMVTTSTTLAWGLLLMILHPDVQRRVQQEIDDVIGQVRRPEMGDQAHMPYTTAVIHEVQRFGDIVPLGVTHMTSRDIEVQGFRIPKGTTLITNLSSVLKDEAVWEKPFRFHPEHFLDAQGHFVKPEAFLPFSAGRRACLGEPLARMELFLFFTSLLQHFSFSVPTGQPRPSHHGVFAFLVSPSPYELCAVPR

| SMILES | sequential P450-UGT metabolism (FIG. 13) (ratCYP1A1 and UGT1A6) | metabolites formed (FIG. 15) (CYP2D6 and UGT1A8) | production of glucuronide (UGT1A1) [µM/day] | production of glucuronide per biomass dry weight (UGT1A1) [µmol/day/g dry weight] | production of glucuronide (UGT1A6 [1]) [µM/day] | production ratio of glucuronide, budding yeast higher than fission yeast (UGT1A6 [2]) | production of glucuronide (UGT1A6 [2]; [3]) [µM/day] | production ratio of glucuronide, budding yeast higher than fission yeast (hUGT1A1) | production of glucuronide per biomass dry weight (hUGT1A1; budding yeast) [µmol/day/g dry weight] | production of glucuronide (hUGT1A1; [3]) [µM/day] |
| --- | --- | --- | --- | --- | --- | --- | --- | --- | --- | --- |
| CCOc1ccc2ccc(=O)oc2c1 [7-ethoxycoumarine] | deethylated by P4501A1 and the resultant 7-hydroxycoumarine (●) was glucuronidated by UGT1A6 to its glucuronide | metabolized to 7-hydroxycoumarine or 3-hydroxy-7-ethoxycoumarine by human P450 2D6 | – | – | – | – | – | – | – | – |
| Cc1cc(=O)oc2cc(O[C@@H]3O[C@H](C(=O)O)[C@@H](O)[C@H](O)[C@H]3O)ccc12.O [4-metylumberrferone glucuronide, 4-methylumberrferone glucuronide] | – | – | 1.8 | 0.14 | 3.5 | 50 | 195.7 | 10 | 2.6 | 20.2 |
